Assays:
tyrosinase = molecular target: T1, tyrosinase (Mus musculus, UniProt P11344); experiment: Enzyme activity test for tyrosinase in α-MSH-induced B16 cells; assay type: cell-based; conditions: 24.25 μM/10 ppm; inducer 0.1 μg/mL (63 nM) α-MSH
T1 construct: endogenous in cells; host or cells: B16 mouse melanoma cells
T1 sequence (P11344 19-533): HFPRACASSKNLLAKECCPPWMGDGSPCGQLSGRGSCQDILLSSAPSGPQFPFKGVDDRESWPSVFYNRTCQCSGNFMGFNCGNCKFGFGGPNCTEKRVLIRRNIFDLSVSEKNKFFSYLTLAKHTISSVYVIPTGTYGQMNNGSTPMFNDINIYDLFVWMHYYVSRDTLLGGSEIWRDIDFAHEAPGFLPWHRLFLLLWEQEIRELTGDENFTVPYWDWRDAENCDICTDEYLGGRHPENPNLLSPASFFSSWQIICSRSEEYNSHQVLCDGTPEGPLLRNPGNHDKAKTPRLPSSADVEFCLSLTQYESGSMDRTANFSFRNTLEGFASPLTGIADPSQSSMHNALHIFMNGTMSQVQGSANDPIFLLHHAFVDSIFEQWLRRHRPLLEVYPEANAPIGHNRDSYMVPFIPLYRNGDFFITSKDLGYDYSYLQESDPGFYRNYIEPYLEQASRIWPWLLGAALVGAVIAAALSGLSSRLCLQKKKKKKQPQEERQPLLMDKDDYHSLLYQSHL
Procedure: (§1) A method for in vitro testing whitening efficacy for B16 mouse melanoma cells was designed according to Association Standard T/SHRH 021-2019 for cosmetics whitening efficacy test, in combination with NCBI and CNKI literature research:
Cell samples having been treated by an inducer (α-MSH) and a to-be-tested substance were placed in a 96-well cell culture plate, for repeated freeze-thawing lysis. To each well 100 μL of 0.1˜0.5% levodopa was added, incubation was performed in a 37° C. cell incubator for about 2 h. the absorbancy (OD) value was measured at 450 nm wavelength.

[1] = system: Human immortalized keratinocytes HaCaT; conditions: 24.25 μM; HaCaT cells
Procedure: It was tested whether ATP in HaCaT cells would be affected by EAC-L-carnosine. Human immortalized keratinocytes HaCaT having been treated with the test substance were fully lysed using a certain amount of cell lysate, and centrifuged at 4° C. and 12000 g for 5 min. Supernatant was taken, and cell lysis samples of each experimental group were added to a 96-well assay plate (opaque) at 20 μL/well. ATP detection solution was further added at 100 μL/well. The plate was left to stand at room temperature for 3˜5 min. Self-luminescence intensity was detected using a full-waveband plate reader.

Skin [2] = experiment: Efficacy for actual volunteer population (skin elasticity and skin tone, CK instrument); assay type: in vivo, human; conditions: 20 ppm in basic cream, whole face; 14th and 28th days
From the text: Test population: experimental group of 15 people, placebo group of 15 people (31-54 years old, female).
Method of use: volunteers used the cream once every morning and evening, with 1 g per use, and uniformly applied the cream on the whole face.
Test instrument: CK instrument.
Test method: using cutometer and Colorimeter probes of the CK instrument to respectively perform a skin elasticity test and a skin tone test on a random side cheek of each volunteer, in a constant-temperature and constant-humidity environment, […]

Skin [3] = conditions: GB17149.2-1997
[4] = system: Human immortalized keratinocytes HaCaT; conditions: about 24 μM/10 ppm; UVA 15 J/cm^2
Procedure: The plate was placed under a specific ultraviolet device, and UVA irradiation dose was 15 J/cm^2. After the induction was completed, the drug-containing PBS was removed, and replaced with a culture medium containing the to-be-tested sample, and they were placed in a carbon dioxide incubator.
ROS detection: after 24 h, a certain amount of DCFH-DA working solution was used in replacement. Incubation was performed in the dark for 15˜30 min. Washing was performed for 3˜5 times with serum-free culture medium. 100 μL of serum-free culture medium was added.
Cell viability detection: after 24 h, a serum-free culture medium containing 10% of CCK-8 was used in replacement. After incubation of 2˜4 h in a carbon dioxide incubator, an OD value was detected at 450 nm wavelength.
HaCat with damage induced by a certain dose of UVA was chosen, to construct a keratinocyte UVA damage cell model.

3T3 cell = conditions: GB/T 21769-2008
H2O2-induced HaCaT cells = experiment: Anti-aging repair test for stratum corneum cell under oxidative stress (H2O2); assay type: cell-based, human; conditions: 24 h sample repair after H2O2 damage
From the text: In order to study the anti-aging repair efficacy of the raw material of the present disclosure to stratum corneum cell under oxidative stress, according to Anti-wrinkly and Firming Lifting Efficacy Test of Cosmetics—In vitro Test Method of Reactive Oxygen Species (ROS) Inhibition with keratinocytes (Association Standard T/SHRH 032-2020), oxidative damage cell models were constructed with H2O2-induced HaCaT cells, and relative proliferation rate and ROS expression quantity of the cells were respectively measured.
Washing was performed for 3˜5 times with a serum-free culture medium. 100 μL of serum-free culture medium was added.

Blood cell = conditions: Toxicology in Vitro 13 (1999) 343~354
[5] = system: HFF human foreskin fibroblast; experiment: Fibroblast anti-aging repair test under UVA photoaging stress; assay type: cell-based; conditions: about 24 μM/10 ppm; UVA 5 J/cm^2
Procedure: 100 μL of serum-free culture medium was added.
HYP (cell lysate) content detection: a hydroxyproline (HYP) content detection kit was used. First, a HYP standard was used for detection and a standard curve was plotted, and then a HYP […] content contained in the fibroblast lysate diluted at an appropriate ratio was measured.
Type I collagen content detection: human type I collagenase (Col I) immunization kit was used for ELISA detection. First, a type I collagen standard was used for detection and a standard curve was plotted, and then a collagen content contained in the fibroblast supernatant diluted at an appropriate ratio was measured.

[6] = system: human primary fibroblasts FB; experiment: Synthesis test of type I collagen of fibroblast; assay type: cell-based; conditions: 24.25 μM/10 ppm; FB supernatant, ELISA
Procedure: According to Anti-wrinkly and Firming Lifting Efficacy Test of Cosmetics—In vitro Test Method of Collagen I Contents with fibroblasts (Association Standard T/SHRH 032-2020), human primary fibroblasts FB were used to measure influence of each raw material group on collagen secretion of FB at a concentration (24.25 μM/10 ppm).
The plate was placed in a carbon dioxide incubator for incubation for 24 h+2 h. After incubation was finished, 200 μL of cell culture supernatant was collected per well in a 1.5 mL sterile centrifuge tube, and stored frozen in an ultra-low temperature freezer at −80° C.
Human type I collagenase immunization kit was used for ELISA detection. First, a standard was used for detection and a standard curve was plotted, and then a collagen content contained in the fibroblast supernatant diluted at an appropriate ratio was measured.

B16 mouse melanoma cells = experiment: Measurement of melanin content in α-MSH-induced B16 cells; assay type: cell-based; conditions: for melanin inhibition (in words): 24.25 μM (about 10 ppm), inducer 0.1 μg/mL (63 nM) α-MSH
Procedure: as §1
Cell samples having been treated by the inducer (α-MSH) and the to-be-tested substance were placed in a 6-well cell culture plate. 0.5˜2 mL of cell lysate was added. The culture plate was allowed to stand in a 65° C. constant-temperature oven for 2 h. Then, after the lysate was uniformly mixed, the lysate was added to a 96-well assay plate at 150 μL/well. The absorbancy (OD) value was measured at 450 nm wavelength.

rabbit corneal cell SIRC = experiment: SIRC corneal cell irritation test (ocular irritation SIRC model); assay type: cell-based
Procedure: Detection method was rabbit corneal cell SIRC cell viability test. To-be-tested cells were washed 1˜2 times with PBS. 100 μL of MEM complete medium and 10 μL of CCK-8 solution were added to each well, and placed in a carbon dioxide incubator, for incubation of 2˜4 h. The absorbancy (OD) value was measured at 450 nm wavelength. CCK-8 reagent can be replaced with MTT.

SMILES: CCOC1=C(O)C(=O)O[C@@H]1[C@@H](O)COC(=O)[C@H](Cc1c[nH]cn1)NC(=O)CCN [Example 1, 3-O-ethyl ascorbic acid-L-carnosine]
- tyrosinase inhibition versus EAC, L-carnosine and their physical mixture (tyrosinase): better capability of inhibiting tyrosinase
- improvement of ATP expression compared with blank group [1]: 25.0%
- ITA skin tone of the test group population (Skin [2]): significant trend of elevation
- Test Conclusion, Skin patch test and trial test (Skin [3]): pass
- activity of keratinocytes after UVA irradiation [4]: up-regulating the activity of keratinocytes after UVA irradiation
- generation of free radical ROS after UVA, HaCaT [4]: significantly inhibiting the generation of free radical ROS
- hydroxyproline HYP after UVA, HaCaT [4]: significantly activating collagen precursor hydroxyproline HYP
- HET-CAM irritation conclusion (chorioallantoic membrane; 10 ppm solution sample): non-irritant
- IS (HET-CAM) (chorioallantoic membrane; 10 ppm solution sample, SN/T 2329-2009): 0
- Test Conclusion, Ocular irritation HET-CAM model (chorioallantoic membrane; SN329-2009): pass
- Test Conclusion, Phototoxicity 3T3 cell model (3T3 cell): pass
- ROS expression quantity after H2O2 damage (H2O2-induced HaCaT cells): significantly down-regulate the ROS expression quantity
- cell activity after H2O2 damage (H2O2-induced HaCaT cells): significantly improve cell activity
- Test Conclusion, Blood cell hemolysis test model (Blood cell): pass
- activity of fibroblasts after UVA irradiation [5]: significantly up-regulating the activity of fibroblasts after UVA irradiation
- generation of free radical ROS after UVA, HFF [5]: significantly inhibiting the generation of free radical ROS
- hydroxyproline HYP after UVA, HFF [5]: significantly activating collagen precursor hydroxyproline HYP
- collagen I generation versus EAC, dipeptide monomer and their mixture [6]: more significant effect on promoting collagen generation
- melanin inhibition (in words) (B16 mouse melanoma cells; listed as EAC-L-Carnosine): significant effect of inhibiting melanin secretion
- melanin inhibition (in words) (B16 mouse melanoma cells; listed as EAC-L-carnosine): significantly improved capability of inhibiting final melanin
- down-regulation of melanin secretion (B16 mouse melanoma cells; 24.25 μM, B16 cells, α-MSH inducer): 27.85%
- SIRC irritation conclusion (rabbit corneal cell SIRC; 10 ppm solution sample): no irritant
- CSR (SIRC cell viability) (rabbit corneal cell SIRC; 10 ppm solution sample, SN/T 3084.2-2014): 106.0
- Test Conclusion, Ocular irritation SIRC model (rabbit corneal cell SIRC; OECD 491): pass
